The source of these data is US20230183237A1, “COMPETITIVE AND NONCOMPETITIVE INHIBITORS OF THE MUSCARINIC ACETYLCHOLINE RECEPTOR M5” (Vanderbilt University, priority 2020, published 2023).

The target of the assay is T1, hM5 (Homo sapiens, UniProt P08912).
T1 construct: expressed in transfected cells
T1 sequence (P08912 1-532): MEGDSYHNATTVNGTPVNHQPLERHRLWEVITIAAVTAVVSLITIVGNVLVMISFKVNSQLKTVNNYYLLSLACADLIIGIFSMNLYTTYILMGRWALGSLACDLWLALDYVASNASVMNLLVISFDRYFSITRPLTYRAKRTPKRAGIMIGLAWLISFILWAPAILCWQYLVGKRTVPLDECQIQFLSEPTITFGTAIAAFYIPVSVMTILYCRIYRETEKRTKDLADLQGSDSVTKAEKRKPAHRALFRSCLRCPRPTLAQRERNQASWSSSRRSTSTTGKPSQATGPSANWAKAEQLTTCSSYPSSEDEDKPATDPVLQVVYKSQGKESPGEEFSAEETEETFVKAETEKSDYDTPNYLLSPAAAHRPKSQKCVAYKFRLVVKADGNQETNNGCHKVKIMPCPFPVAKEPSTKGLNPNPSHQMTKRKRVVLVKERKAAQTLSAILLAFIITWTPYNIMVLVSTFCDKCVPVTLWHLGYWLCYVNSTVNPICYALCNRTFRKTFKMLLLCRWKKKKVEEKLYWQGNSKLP
Put plainly: Calcium mobilization concentration-response (IC50 vs EC80 acetylcholine), CHO hM5. Conditions: CELL LINE hM5; calcium mobilization, EC80 acetylcholine addition; read-out: IC50. It is filed as cell-based. How it is done:
Initial, single point (10 μM) compound characterization was performed in stable Chinese Hamster Ovary (CHO) cell lines constitutively expressing human M5 receptors. These were plated at 15,000 cells per 20 μL per well in Greiner 384-well black-walled, TC-treated, clear-bottomed plates (Fisher) in Ham's F12 medium supplemented with 10% FBS and 20 mM HEPES. Cells were incubated overnight at 37° C. under 5% CO2. The following day, medium was exchanged with assay buffer (Hank's Balanced Salt Solution supplemented with 20 mM HEPES and 2.5 mM Probenecid, pH 7.4) leaving 20 μL of assay buffer in each well. […] The cells were then incubated 50 minutes at 37° C. under 5% CO2. The assay buffer plus dye was then exchanged with fresh assay buffer leaving a volume of 20 μL in each well. Test compounds were diluted into assay buffer to a 2X (20 μM) concentration in 0.2% dimethylsulfoxide (DMSO) in columns 3-22 with matching DMSO concentration in columns 1, 2, 23, and […]; compounds were added to the assay for a final concentration of 10 μM and a final DMSO concentration of 0.1%.
Either an FDSS (Hamamatsu) or Panoptic (WaveFront Biosciences) kinetic imaging plate reader was used for assay execution and measurement of calcium flux. After establishing baseline fluorescence, test compounds (20 μL) were added to the cells using the reader's integrated pipettor and allowed to equilibrate for 140 seconds before addition of the […] concentration of acetylcholine (10 μL) along with vehicle in selected DMSO-only wells in the outer two columns . […] The raw fluorescence data from each well was normalized to the corresponding initial fluorescence reading (static ratio). The maximum fluorescence value following each addition was determined and the minimum value within that same timeframe was subtracted for each well then normalized to the average of the ECffiax maximum-minimum response, providing a % AChmax value for each addition for each well. The single point values represent mean values determined within the ECsu addition timeframe obtained from at least three independent determinations performed in triplicate or greater (error bars represent +/−SEM) unless otherwise specified.
CHO cells stably expressing hM1, hM2/Gqi5, hM3, hM4/Gqi5, hM5, rM1/Gqi5, rM3, rM4/Gqi5, or rM5 were plated in the manner described above. […] FDSS protocols were carried out as described above; the static ratio was calculated and the minimum response subtracted from the maximum response within the timeframe of each addition. This max-min response was then normalized to the maximum acetylcholine response. Calculation of IC50 was performed using the percent maximum acetylcholine response for the EC80 addition through the Vortex and Studies modules of the Dotmatics data management software. Results are stored in the Dotrnatics database and an audit trail of any changes to their analysis is generated. Data shown represent mean values obtained from at least three independent determinations performed in triplicate or greater (error bars represent±SEM) unless otherwise specified.
Turning to `Cc1c(C2CCN(S(=O)(=O)c3ccc4c(c3)CCO4)CC2)nn2ccnc2c1C` [Compound 45, 6-(1-((2,3-dihydrobenzofuran-5-yl)sulfonyl)piperidin-4-yl)-7,8-dimethylimidazo[1,2-b]pyridazine], the IC50 is above 10 µM.

For `Cc1cc2ncnn2cc1C1=CCN(S(=O)(=O)c2cc3c(cc2F)OCC3)CC1` [Compound 46, 6-(1-((6-fluoro-2,3-dihydrobenzofuran-5-yl)sulfonyl)-1,2,3,6-tetrahydropyridin-4-yl)-7-methyl-[1,2,4]triazolo[1,5-a]pyridine], the IC50 was determined as 2.7 µM.

With `Cc1cc2ncnn2cc1C1CCN(S(=O)(=O)c2cc3c(cc2F)OCC3)CC1` [Compound 47, 6-(1-((6-fluoro-2,3-dihydrobenzofuran-5-yl)sulfonyl)piperidin-4-yl)-7-methyl-[1,2,4]triazolo[1,5-a]pyridine], the IC50 amounted to 0.441 µM.

In the case of `Cc1cc2ncnn2cc1C1=CCN(S(=O)(=O)c2ccc3c(c2)CC(C)O3)CC1` (centres unmarked) [Compound 49, 7-methyl-6-(1-((2-methyl-2,3-dihydrobenzofuran-5-yl)sulfonyl)-1,2,3,6-tetrahydropyridin-4-yl)-[1,2,4]triazolo[1,5-a]pyridine], the IC50 was above 10 µM.

As to `Cc1cc2nncn2cc1C1CCN(S(=O)(=O)c2ccc3c(c2)CCO3)CC1` [Compound 50, 6-(1-((2,3-dihydrobenzofuran-5-yl)sulfonyl)piperidin-4-yl)-7-methyl-[1,2,4]triazolo[4,3-a]pyridine], the IC50 is above 10 µM.

Turning to `Cc1cc2nncn2cc1C1CCN(S(=O)(=O)c2cc3c(cc2F)OCC3)CC1` [Compound 51, 6-(1-((6-fluoro-2,3-dihydrobenzofuran-5-yl)sulfonyl)piperidin-4-yl)-7-methyl-[1,2,4]triazolo[4,3-a]pyridine], the IC50 was above 10 µM.

Consider `Cc1cc2nccn2nc1C1CCN(S(=O)(=O)c2cc3c(cc2F)OCC3)CC1` [Compound 52, 6-(1-((6-fluoro-2,3-dihydrobenzofuran-5-yl)sulfonyl)piperidin-4-yl)-7-methylimidazo[1,2-b]pyridazine], for which the IC50 was found to be 5.5 µM.

Turning to `Cc1cc2nccn2nc1C1CCN(S(=O)(=O)c2cccnc2)CC1` [Compound 53, 7-methyl-6-(1-(pyridin-3-ylsulfonyl)piperidin-4-yl)imidazo[1,2-b]pyridazine], the IC50 is above 10 µM.

Regarding `Cc1cc(S(=O)(=O)N2CCC(c3nn4ccnc4cc3C)CC2)cnc1Cl` [Compound 54, 6-(1-((6-chloro-5-methylpyridin-3-yl)sulfonyl)piperidin-4-yl)-7-methylimidazo[1,2-b]pyridazine], the IC50 is above 10 µM.

As for `Cc1cc2nccn2nc1C1CCN(S(=O)(=O)c2cn(C)nc2C)CC1` [Compound 55, 6-(1-((1,3-dimethyl-1H-pyrazol-4-yl)sulfonyl)piperidin-4-yl)-7-methylimidazo[1,2-b]pyridazine], the IC50 amounted to 5.6 µM.

Regarding `Cc1cc2ncnn2cc1C1CCN(S(=O)(=O)c2cnc(Cl)c(C)c2)CC1` [Compound 57, 6-(1-((6-chloro-5-methylpyridin-3-yl)sulfonyl)piperidin-4-yl)-7-methyl-[1,2,4]triazolo[1,5-a]pyridine], the IC50 amounted to 1.4 µM.

For the compound `O=S(=O)(c1ccc2c(c1)CCO2)N1CC[C@@H](c2cn(-c3ccc4scnc4c3)nn2)C1` [Compound 59, (R)-5-(4-(1-((2,3-Dihydrobenzofuran-5-yl)sulfonyl)pyrrolidin-3-yl)-1H-1,2,3-triazol-1-yl)benzo[d]thiazole], the IC50 is above 10 µM.

In the case of `O=S(=O)(c1ccc2c(c1)CCO2)N1CCC(c2ccc3ncnn3c2)CC1` [Compound 60, 6-(1-((2,3-dihydrobenzofuran-5-yl)sulfonyl)piperidin-4-yl)-[1,2,4]triazolo[1,5-a]pyridine], the IC50 was above 10 µM.

Regarding `O=S(=O)(c1cc2c(cc1F)OCC2)N1CCC(c2ccc3ncnn3c2)CC1` [Compound 61, 6-(1-((6-fluoro-2,3-dihydrobenzofuran-5-yl)sulfonyl)piperidin-4-yl)-[1,2,4]triazolo[1,5-a]pyridine], the IC50 was above 10 µM.

As for `O=S(=O)(c1ccc2ncsc2c1)N1CCC(c2ccc3ncnn3c2)CC1` [Compound 62, 6-((4-([1,2,4]triazolo[1,5-a]pyridin-6-yl)piperidin-1-yl)sulfonyl)benzo[d]thiazole], the IC50 was above 10 µM.

`Cc1nn(C)cc1S(=O)(=O)N1CCC(c2ccc3ncnn3c2)CC1` [Compound 63, 6-(1-((1,3-dimethyl-1H-pyrazol-4-yl)sulfonyl)piperidin-4-yl)-[1,2,4]triazolo[1,5-a]pyridine]: the IC50 is above 10 µM.

Regarding `Cc1cc2ncnn2cc1C1=CCN(S(=O)(=O)c2ccc3c(c2)C(C)(C)CO3)CC1` [Compound 64, 6-(1-((3,3-dimethyl-2,3-dihydrobenzofuran-5-yl)sulfonyl)-1,2,3,6-tetrahydropyridin-4-yl)-7-methyl-[1,2,4]triazolo[1,5-a]pyridine], the 50% inhibitory concentration (IC50) is above 10 µM.

As for `Cc1cc2ncnn2cc1C1=CCN(S(=O)(=O)c2ccc3c(c2)C(C)CO3)CC1` (centres unmarked) [Compound 65, 7-Methyl-6-(1-((3-methyl-2,3-dihydrobenzofuran-5-yl)sulfonyl)-1,2,3,6-tetrahydropyridin-4-yl)[1,2,4]triazolo[1,5-a]pyridine], the half-maximal inhibitory concentration (IC50) is 0.384 µM.

As to `Cc1cc2nccn2cc1C1CCN(S(=O)(=O)c2ccc3c(c2)CCO3)CC1` [Compound 66, 6-(1-((2,3-dihydrobenzofuran-5-yl)sulfonyl)piperidin-4-yl)-7-methylimidazo[1,2-a]pyridine], the IC50 amounted to 1.3 µM.

Regarding `Cc1cc2nccn2cc1C1CCN(S(=O)(=O)c2cc3c(cc2F)OCC3)CC1` [Compound 67, 6-(1-((6-fluoro-2,3-dihydrobenzofuran-5-yl)sulfonyl)piperidin-4-yl)-7-methylimidazo[1,2-a]pyridine], the IC50 turned out to be 2.6 µM.

Consider `Cc1cc2nccn2cc1C1CCN(S(=O)(=O)c2ccc3ncsc3c2)CC1` [Compound 68, 6-((4-(7-methylimidazo[1,2-a]pyridin-6-yl)piperidin-1-yl)sulfonyl)benzo[d]thiazole], for which the IC50 was determined as 6 µM.

For `Cc1ccc(S(=O)(=O)N2CCC(c3cn4ccnc4cc3C)CC2)cn1` [Compound 69, 7-methyl-6-(1-((6-methylpyridin-3-yl)sulfonyl)piperidin-4-yl)imidazo[1,2-a]pyridine], the IC50 was above 10 µM.

Take `Cc1cc2nccn2cc1C1CCN(S(=O)(=O)c2ccc(Cl)nc2)CC1` [Compound 70, 6-(1-((6-chloropyridin-3-yl)sulfonyl)piperidin-4-yl)-7-methylimidazo[1,2-a]pyridine]: the IC50 is above 10 µM.

For the compound `Cc1cc2nccn2cc1C1CCN(S(=O)(=O)c2cn(C)nc2C)CC1` [Compound 71, 6-(1-((1,3-dimethyl-1H-pyrazol-4-yl)sulfonyl)piperidin-4-yl)-7-methylimidazo[1,2-a]pyridine], the IC50 is above 10 µM.

Regarding `[2H]C1([2H])Oc2ccc(S(=O)(=O)N3CC=C(c4cn5ncnc5cc4C)CC3)cc2C1([2H])[2H]` [Compound 72, 6-(1-((2,3-dihydrobenzofuran-5-yl-2,2,3,3-d4)sulfonyl)-1,2,3,6-tetrahydropyridin-4-yl)-7-methyl-[1,2,4]triazolo[1,5-a]pyridine], the IC50 is 0.699 µM.

Take `Cc1cc2ncnn2cc1C1CCN(S(=O)(=O)c2ccc3c(c2)C(C)CO3)CC1` (centres unmarked) [Compound 73, 7-methyl-6-(1-((3-methyl-2,3-dihydrobenzofuran-5-yl)sulfonyl)piperidin-4-yl)-[1,2,4]triazolo[1,5-a]pyridine]: the IC50 was 0.069 µM.
